Test results: ChEMBL document CHEMBL5154863, “Design and synthesis of quinolinium-based derivatives targeting FtsZ for antibacterial evaluation and mechanistic study” (Eur J Med Chem, 2022)
In brackets after ≈: the same amount, converted by molar mass. Activity calls are given as the source filed them. No cut-off for these calls is given here.

Tests used:
[1] = tested on: Pseudomonas aeruginosa; assay: Antibacterial activity against […] Pseudomonas aeruginosa ATCC 27853 assessed as inhibition of bacterial growth incubated for 20 to 24 hrs by broth micro dilution method; format: functional; settings: time 20-24 hrs
[2] = tested on: Staphylococcus aureus; assay: Antibacterial activity against methicillin-resistant Staphylococcus aureus ATCC 43300 assessed as inhibition of bacterial growth incubated for 20 to 24 hrs by broth micro dilution method; format: functional; settings: time 20-24 hrs
[3] = tested on: Enterococcus faecium; assay: Antibacterial activity against vancomycin resistant Enterococcus faecium ATCC 700221 assessed as inhibition of bacterial growth incubated for 20 to 24 hrs by broth micro dilution method; format: functional; settings: time 20-24 hrs
[4] = tested on: Escherichia coli; assay: Antibacterial activity against Escherichia coli ATCC 8739 assessed as inhibition of bacterial growth incubated for 20 to 24 hrs by broth micro dilution method; format: functional; settings: time 20-24 hrs
[5] = tested on: Staphylococcus aureus; assay: Antibacterial activity against Staphylococcus aureus ATCC 29213 assessed as inhibition of bacterial growth incubated for 20 to 24 hrs by broth micro dilution method; format: functional; settings: time 20-24 hrs
[6] = tested on: Escherichia coli; assay: Antibacterial activity against NDM-1 expressing Escherichia coli ATCC BAA2469 assessed as inhibition of bacterial growth incubated for 20 to 24 hrs by broth micro dilution method; format: functional; settings: time 20-24 hrs
[7] = tested on: Escherichia coli; assay: Antibacterial activity against Escherichia coli ATCC 25922 assessed as inhibition of bacterial growth incubated for 20 to 24 hrs by broth micro dilution method; format: functional; settings: time 20-24 hrs
[8] = tested on: Acinetobacter baumannii; assay: Antibacterial activity against multi-drug resistant Acinetobacter baumannii ATCC 19606 assessed as inhibition of bacterial growth incubated for 20 to 24 hrs by broth micro dilution method; format: functional; settings: time 20-24 hrs
[9] = tested on: Bacillus subtilis; assay: Antibacterial activity against Bacillus subtilis CMCC (B) 63501 assessed as inhibition of bacterial growth incubated for 20 to 24 hrs by broth micro dilution method; format: functional; settings: time 20-24 hrs
[10] = tested on: Staphylococcus aureus; assay: Antibacterial activity against methicillin-resistant Staphylococcus aureus ATCC BAA-1720 assessed as inhibition of bacterial growth incubated for 20 to 24 hrs by broth micro dilution method; format: functional; settings: time 20-24 hrs
[11] = tested on: Staphylococcus aureus; assay: Antibacterial activity against vancomycin-intermediate Staphylococcus aureus Mu50 assessed as inhibition of bacterial growth incubated for 20 to 24 hrs by broth micro dilution method; format: functional; settings: time 20-24 hrs
[12] = tested on: Staphylococcus epidermidis; assay: Antibacterial activity against Staphylococcus epidermidis ATCC 12228 assessed as inhibition of bacterial growth incubated for 20 to 24 hrs by broth micro dilution method; format: functional; settings: time 20-24 hrs
[13] = tested on: Staphylococcus aureus; assay: Antibacterial activity against methicillin-resistant Staphylococcus aureus ATCC 33592 assessed as inhibition of bacterial growth incubated for 20 to 24 hrs by broth micro dilution method; format: functional; settings: time 20-24 hrs
[14] = tested on: Enterococcus faecium; assay: Antibacterial activity against vancomycin-resistant Enterococcus faecium clinical isolate assessed as inhibition of bacterial growth incubated for 20 to 24 hrs by broth micro dilution method; format: functional; settings: time 20-24 hrs
[15] = tested on: Enterococcus faecium; assay: Antibacterial activity against Enterococcus faecium ATCC 49624 assessed as inhibition of bacterial growth incubated for 20 to 24 hrs by broth micro dilution method; format: functional; settings: time 20-24 hrs
[16] = tested on: Staphylococcus aureus; assay: Induction of drug resistance against Staphylococcus aureus ATCC 29213 assessed as fold increase in MIC after 16 passage; format: functional
[17] = tested on: Klebsiella pneumoniae; assay: Antibacterial activity against NDM-1 expressing Klebsiella pneumoniae ATCC BAA 2470 assessed as inhibition of bacterial growth incubated for 20 to 24 hrs by broth micro dilution method; format: functional; settings: time 20-24 hrs
[18] = tested on: Enterococcus faecalis; assay: Antibacterial activity against Enterococcus faecalis ATCC 29212 assessed as inhibition of bacterial growth incubated for 20 to 24 hrs by broth micro dilution method; format: functional; settings: time 20-24 hrs
[19] = tested on: Staphylococcus aureus; assay: Bactericidal activity against Staphylococcus aureus ATCC 29213 assessed as inhibition of bacterial growth incubated for 24 hrs by resazurin dye based microtiter plate assay; format: functional
[20] = molecular target: T1, Cell division protein FtsZ (Staphylococcus aureus) (UniProt P0A031); assay: Binding affinity to Staphylococcus aureus FtsZ assessed as equilibrium binding constant by isothermal titration calorimetry
T1 sequence (whole entry): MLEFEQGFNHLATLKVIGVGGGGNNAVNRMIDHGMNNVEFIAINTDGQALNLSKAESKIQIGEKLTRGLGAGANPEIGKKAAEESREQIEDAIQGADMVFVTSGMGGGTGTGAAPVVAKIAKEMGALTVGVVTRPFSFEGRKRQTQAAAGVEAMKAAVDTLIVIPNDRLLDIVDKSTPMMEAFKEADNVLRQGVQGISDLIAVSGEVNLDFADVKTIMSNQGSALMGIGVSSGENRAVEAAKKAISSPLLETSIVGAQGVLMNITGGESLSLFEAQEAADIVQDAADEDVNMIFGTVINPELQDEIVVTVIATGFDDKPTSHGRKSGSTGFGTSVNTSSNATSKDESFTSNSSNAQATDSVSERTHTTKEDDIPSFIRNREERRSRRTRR

[21] = molecular target: T1, Cell division protein FtsZ (Staphylococcus aureus); assay: Induction of Staphylococcus aureus FtsZ polymerization expressed in Escherichia coli BL21 (DE3) assessed as increase in absorbance at 2 to 8 ug/ml in presence of GTP by microplate reader method; settings: dose 2-8 µg/ml, DDE = dose-dependent effect
[22] = tested on: Staphylococcus aureus; assay: Synergistic antibacterial activity against methicillin-resistant Staphylococcus aureus ATCC BAA41 assessed as inhibition of bacterial growth incubated for 24 hrs in presence of methicillin by checker board assay; format: functional
[23] = tested on: Bacillus subtilis; assay: Induction of morphological changes in Bacillus subtilis CMCC (B) 63501 assessed as elongation of bacterial cell at 0.5 times MIC for 4 hrs (reference value: 3 to 5 um) by microscopic analysis; format: functional
[24] = molecular target: T1, Cell division protein FtsZ (Staphylococcus aureus); assay: Binding affinity to Staphylococcus aureus FtsZ assessed as increase in alpha helix structure at 8 ug/ml incubated for 30 mins by circular dichroism method; settings: dose 8.0 µg/ml
[25] = molecular target: T2, Cell division protein FtsZ (Staphylococcus aureus, UniProt P0A031); assay: Binding affinity to Staphylococcus aureus FtsZ assessed as dissociation constant by isothermal titration calorimetry
T2 sequence (P0A031 whole entry): T1 sequence (whole entry)

[26] = tested on: Bacillus subtilis; assay: Bactericidal activity against Bacillus subtilis CMCC (B) 63501 assessed as inhibition of bacterial growth incubated for 24 hrs by resazurin dye based microtiter plate assay; format: functional
[27] = molecular target: T1, Cell division protein FtsZ (Staphylococcus aureus); assay: Binding affinity to Staphylococcus aureus FtsZ assessed as decrease in other structure at 8 ug/ml incubated for 30 mins by circular dichroism method; settings: dose 8.0 µg/ml
[28] = tested on: Staphylococcus aureus; assay: Induction of morphological changes in Staphylococcus aureus ATCC 29213 assessed as enlargement of cell size at 0.5 times MIC for 4 hrs by microscopic analysis; format: functional, organism-based
[29] = Ratio of MBC for bactericidal activity against Enterococcus faecium ATCC 700221 to MIC for antibacterial activity against Enterococcus faecium ATCC 700221; format: functional
[30] = Ratio of MBC for bactericidal activity against Staphylococcus aureus ATCC 43300 to MIC for antibacterial activity against Staphylococcus aureus ATCC 43300; format: functional
[31] = tested on: Enterococcus faecium; assay: Bactericidal activity against Enterococcus faecium ATCC 700221 assessed as inhibition of bacterial growth incubated for 24 hrs by resazurin dye based microtiter plate assay; format: functional
[32] = tested on: Staphylococcus aureus; assay: Bactericidal activity against Staphylococcus aureus ATCC 43300 assessed as inhibition of bacterial growth incubated for 24 hrs by resazurin dye based microtiter plate assay; format: functional
[33] = tested on: Staphylococcus aureus; assay: Antibacterial activity against methicillin-resistant Staphylococcus aureus ATCC BAA41 assessed as inhibition of bacterial growth incubated for 24 hrs by checker board assay; format: functional
[34] = Ratio of MBC for bactericidal activity against Staphylococcus aureus ATCC 29213 to MIC for antibacterial activity against Staphylococcus aureus ATCC 29213; format: functional
[35] = Ratio of MBC for bactericidal activity against Bacillus subtilis CMCC (B) 63501 to MIC for antibacterial activity against Bacillus subtilis CMCC (B) 63501; format: functional
[36] = molecular target: T1, Cell division protein FtsZ (Staphylococcus aureus); assay: Binding affinity to Staphylococcus aureus FtsZ assessed as decrease in random coil structure at 8 ug/ml incubated for 30 mins by circular dichroism method; settings: dose 8.0 µg/ml
[37] = tested on: Staphylococcus aureus; assay: Antibacterial activity against methicillin-resistant Staphylococcus aureus ATCC BAA41 assessed as fractional inhibitory concentration index incubated for 24 hrs by checker board assay; format: functional
[38] = molecular target: T1, Cell division protein FtsZ (Staphylococcus aureus); assay: Binding affinity to Staphylococcus aureus FtsZ assessed as decrease in beta turn structure at 8 ug/ml incubated for 30 mins by circular dichroism method; settings: dose 8.0 µg/ml

Row | SMILES | MIC [1] | MIC [2] | MIC [3] | MIC [4] | MIC [5] | MIC [6] | MIC [7] | MIC [8] | MIC [9] | MIC [10] | MIC [11] | MIC [12] | MIC [13] | MIC [14] | MIC [15] | MIC [17] | MIC [18] | MBC [19] | Kb [20] | Activity [21] | further results
1 | CO[C@H]1/C=C/O[C@@]2(C)Oc3c(C)c(O)c4c(O)c(c(/C=N/N5CCN(C)CC5)c(O)c4c3C2=O)NC(=O)/C(C)=C\C=C\[C@H](C)[C@H](O)[C@@H](C)[C@@H](O)[C@@H](C)[C@H](OC(C)=O)[C@@H]1C [RIFAMPIN] | > 64 µg/mL | < 0.125 µg/mL | < 0.125 µg/mL | 8 µg/mL (≈ 9.72 µM) | 0.5 µg/mL (≈ 0.608 µM) | > 64 µg/mL | 2 µg/mL (≈ 2.43 µM) | > 64 µg/mL | 0.125 µg/mL (≈ 0.152 µM) | < 0.125 µg/mL | 0.125 µg/mL (≈ 0.152 µM) | 1 µg/mL (≈ 1.22 µM) | > 64 µg/mL | 8 µg/mL (≈ 9.72 µM) | < 0.125 µg/mL | > 64 µg/mL | 0.125 µg/mL (≈ 0.152 µM) | – | – | – | fold change (FC) [16]: 4096
2 | CCCCCNc1cc(/C=C/c2ccc(N(C)C)cc2)[n+](C)c2ccccc12.[I-] | > 64 µg/mL | 2 µg/mL | 4 µg/mL | > 64 µg/mL | 2 µg/mL | > 64 µg/mL | 64 µg/mL | > 64 µg/mL | 4 µg/mL | 1 µg/mL | 4 µg/mL | 1 µg/mL | 2 µg/mL | 4 µg/mL | 8 µg/mL | > 64 µg/mL | 4 µg/mL | 8 µg/mL | 2.01 10^5/M | Dde | MIC [22]: 0.5 µg/mL; Activity [23]: 30 um; Activity [24]: Active; Kd [25]: 2.38 µM; MBC [26]: 4 µg/mL; Activity [27]: Active; Activity [28]: Active; Ratio [29]: 2; Ratio [30]: 4; MBC [31]: 8 µg/mL; MBC [32]: 8 µg/mL; MIC [33]: 4 µg/mL; Ratio [34]: 4; Ratio [35]: 1; Activity [36]: Active; fractional inhibitory concentration index (FICI) [37]: 0.375; Activity [38]: Active
3 | CN(C)c1ccc(/C=C/c2cc(N3CCCCC3)c3ccccc3[n+]2C)cc1.[I-] | > 64 µg/mL | 1 µg/mL | 1 µg/mL | 64 µg/mL | 1 µg/mL | 64 µg/mL | 16 µg/mL | 64 µg/mL | 2 µg/mL | 2 µg/mL | 2 µg/mL | 1 µg/mL | 1 µg/mL | 4 µg/mL | 8 µg/mL | > 64 µg/mL | 4 µg/mL | 8 µg/mL | 2.02 10^5/M | Dde | MIC [22]: 2 µg/mL; Activity [23]: 30 um; Activity [24]: Active; Kd [25]: 2.49 µM; MBC [26]: 4 µg/mL; Activity [27]: Active; Activity [28]: Active; Ratio [29]: 4; Ratio [30]: 4; MBC [31]: 4 µg/mL; MBC [32]: 4 µg/mL; MIC [33]: 16 µg/mL; Ratio [34]: >4; Ratio [35]: 2; Activity [36]: Active; fractional inhibitory concentration index (FICI) [37]: 0.25; Activity [38]: Active
